The source of these data is the supplement of paper PMC10307832.

Holding throughout (test): relative viability (nuclei count vs DMSO), 5 days (fraction); higher = more cells survive
Compound in the experiment “Ponatinib + Foretinib”: Cc1ccc(C(=O)Nc2ccc(CN3CCN(C)CC3)c(C(F)(F)F)c2)cc1C#Cc1cnc2cccnn12 [Ponatinib] + COc1cc2c(Oc3ccc(NC(=O)C4(C(=O)Nc5ccc(F)cc5)CC4)cc3F)ccnc2cc1OCCCN1CCOCC1 [Foretinib] (partner 0.25 µM)
An outline of the steps:
(§1)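 Lung cancer cell lines in 1536-well plates got either a single drug or a fixed anchor-drug dose together with five library-drug doses (not always all listed) in √10 steps, by pin tool, on the day after seeding. Nuclei were counted after 5 days, and relative viability is the treated-to-vehicle ratio of nuclei counts. Values are medians of duplicate plates.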

Compound in the experiment “Pazopanib + Crizotinib”: Cc1ccc(Nc2nccc(N(C)c3ccc4c(C)n(C)nc4c3)n2)cc1S(N)(=O)=O [Pazopanib] + C[C@@H](Oc1cc(-c2cnn(C3CCNCC3)c2)cnc1N)c1c(Cl)ccc(F)c1Cl [Crizotinib] (partner 1 µM)
In outline:
as §1

Compound in the experiment “Pazopanib + Pictilisib”: Cc1ccc(Nc2nccc(N(C)c3ccc4c(C)n(C)nc4c3)n2)cc1S(N)(=O)=O [Pazopanib] + CS(=O)(=O)N1CCN(Cc2cc3nc(-c4cccc5[nH]ncc45)nc(N4CCOCC4)c3s2)CC1 [Pictilisib] (partner 1 µM)
An outline of the steps:
as §1

Compound in the experiment “Pazopanib + Linsitinib”: Cc1ccc(Nc2nccc(N(C)c3ccc4c(C)n(C)nc4c3)n2)cc1S(N)(=O)=O [Pazopanib] + C[C@]1(O)C[C@@H](c2nc(-c3ccc4ccc(-c5ccccc5)nc4c3)c3c(N)nccn32)C1 [Linsitinib] (partner 1 µM)
An outline of the steps: as §1

Turning to UMC-11, the relative viability in the experiment with Ponatinib + Foretinib (first compound 0.002 µM) amounted to 1.06; in the experiment with Ponatinib + Foretinib (first compound 0.006325 µM), 1.04; with Ponatinib + Foretinib (first compound 0.06325 µM) it was 1.25; with Ponatinib + Foretinib (first compound 0.2 µM), 1.03; in the experiment with Pazopanib + Crizotinib (first compound 0.01 µM) it was 0.625; in the experiment with Pazopanib + Crizotinib (first compound 0.03162 µM), 0.716. Moreover, the relative viability with Pazopanib + Crizotinib (first compound 0.1 µM) was 0.708; with Pazopanib + Crizotinib (first compound 0.3162 µM), 0.675; in the experiment with Pazopanib + Crizotinib (first compound 1 µM), 0.588; with Pazopanib + Pictilisib (first compound 0.01 µM), 0.724; with Pazopanib + Pictilisib (first compound 0.03162 µM), 0.879; with Pazopanib + Pictilisib (first compound 0.1 µM), 0.787. Also, the relative viability in the experiment with Pazopanib + Pictilisib (first compound 0.3162 µM) worked out at 0.928; with Pazopanib + Pictilisib (first compound 1 µM), 1.13; in the experiment with Pazopanib + Linsitinib (first compound 0.01 µM) it was 0.974; with Pazopanib + Linsitinib (first compound 0.03162 µM), 1.06; with Pazopanib + Linsitinib (first compound 0.1 µM), 1.1; with Pazopanib + Linsitinib (first compound 0.3162 µM), 1. For the same cell line, the relative viability with Pazopanib + Linsitinib (first compound 1 µM) came to 1.11.
